Assay results: ChEMBL document CHEMBL5104192, “Late-Stage Functionalization with Cysteine Staples Generates Potent and Selective Melanocortin Receptor-1 Agonists” (J Med Chem, 2022)
pEC50, pKi: −log10 of the molar value. *1 amine or outer side, *2 acyl side, *3 side chain or, on linkers, in order; H or OH if unused. Where a SMILES comes first, the peptide text is derived from it. Bridges are numbered along the chain shown (N, C = ends). [ ]: non-standard residue; d: D form. X9 = O=C(NCCOCCOCCOCCNC(=O)OCC1C2CCc3nnn(CC(=O)N4CCCC[C@H]4C4(O)CN(C(=O)c5ccc(F)c(F)c5Nc5ccc(I)cc5F)C4)c3CCC21)OCC1C2CCc3c([*:1])nnc([*:2])c3CCC21; X8 = NCCNC(=O)OCC1C2CCc3c([*:1])nnc([*:2])c3CCC21; mXylylene = c1cc(C[*:1])cc(C[*:2])c1; oXylylene = c1ccc(C[*:2])c(C[*:1])c1; pXylylene = c1cc(C[*:2])ccc1C[*:1]; Nle = CCCC[C@H](N)C(=O)O

Key:
[1] = target: T1, Melanocyte-stimulating hormone receptor (Homo sapiens, UniProt Q01726); assay: Displacement of [125I]-NDP-alpha-MSH from human MC1R expressed in HEK2936E cell membrane measured after 16 to 23 hrs by 1450 microbeta trilux scintillation proximity assay; format: cell membranes
Homo sapiens [2] = organism: Homo sapiens; assay: Selectivity ratio of Ki for human MC3R to Ki for human MC1R
Melanocortin receptor 3 [3] = target: T2, Melanocortin receptor 3 (Homo sapiens, UniProt P41968); assay: Displacement of [125I]-NDP-alpha-MSH from human MC3R expressed in HEK2936E cell membrane measured after 16 to 23 hrs by 1450 microbeta trilux scintillation proximity assay; format: cell membranes
Homo sapiens [4] = organism: Homo sapiens; assay: Selectivity ratio of Ki for human MC4R to Ki for human MC1R
Melanocortin receptor 4 = Melanocortin receptor 4 (Homo sapiens, UniProt P32245); assay: Displacement of [125I]-NDP-alpha-MSH from human MC4R expressed in HEK2936E cell membrane measured after 16 to 23 hrs by 1450 microbeta trilux scintillation proximity assay; format: cell membranes
[5] = target: T1, Melanocyte-stimulating hormone receptor; assay: Agonist activity at human MC1R expressed in HEK2936E cells assessed as cAMP production in presence of IBMX by time resolved fluorescence assay; format: functional, cell-based; details: read-out: pEC50 (converted)
Melanocortin receptor 3 [6] = target: T2, Melanocortin receptor 3; assay: Agonist activity at human MC3R expressed in HEK2936E cells assessed as cAMP production in presence of IBMX by time resolved fluorescence assay; format: functional, cell-based

T1 sequence (Q01726 whole entry): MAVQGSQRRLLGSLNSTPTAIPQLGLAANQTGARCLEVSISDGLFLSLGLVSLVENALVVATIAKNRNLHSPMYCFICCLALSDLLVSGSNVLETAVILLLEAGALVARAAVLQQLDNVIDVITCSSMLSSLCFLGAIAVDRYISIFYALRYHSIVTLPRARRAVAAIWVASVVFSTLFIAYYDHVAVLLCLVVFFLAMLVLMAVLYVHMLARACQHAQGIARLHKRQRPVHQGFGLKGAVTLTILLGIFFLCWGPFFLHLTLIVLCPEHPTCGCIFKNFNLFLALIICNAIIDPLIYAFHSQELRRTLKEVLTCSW
Sequence of Melanocortin receptor 4 (P32245 whole entry): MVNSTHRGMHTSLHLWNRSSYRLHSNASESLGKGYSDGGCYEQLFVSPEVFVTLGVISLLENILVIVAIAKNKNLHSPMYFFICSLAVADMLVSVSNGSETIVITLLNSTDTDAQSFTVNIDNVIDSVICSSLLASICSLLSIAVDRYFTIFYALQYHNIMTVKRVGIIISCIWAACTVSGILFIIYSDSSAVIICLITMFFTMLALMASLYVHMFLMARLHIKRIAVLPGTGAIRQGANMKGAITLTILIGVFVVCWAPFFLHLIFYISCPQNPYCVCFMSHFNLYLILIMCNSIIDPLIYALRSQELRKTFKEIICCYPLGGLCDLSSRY
T2 sequence (P41968 whole entry): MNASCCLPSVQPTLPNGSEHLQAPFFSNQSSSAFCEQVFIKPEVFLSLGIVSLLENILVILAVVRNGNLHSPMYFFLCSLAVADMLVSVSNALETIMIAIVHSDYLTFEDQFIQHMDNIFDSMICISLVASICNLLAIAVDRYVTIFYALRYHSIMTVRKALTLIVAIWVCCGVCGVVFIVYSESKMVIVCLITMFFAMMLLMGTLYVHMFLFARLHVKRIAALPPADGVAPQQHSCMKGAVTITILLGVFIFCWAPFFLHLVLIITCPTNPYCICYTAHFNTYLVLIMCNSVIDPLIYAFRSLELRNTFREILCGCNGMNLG

Compound | pKi [1] | Ratio Ki (Homo sapiens [2]) | pKi (Melanocortin receptor 3 [3]) | Ratio Ki (Homo sapiens [4]) | pKi (Melanocortin receptor 4) | EC50 [5] [nM] | pEC50 (Melanocortin receptor 3 [6])
CCCC[C@@H]1NC(=O)[C@@H]2CSc3nnc(c4c3CCC3C(CC4)C3COC(=O)NCCNC(=O)CCOCCOCCOCCOCCOCCC(=O)NCCNC(=O)OCC3C4CCc5c6nnc(c5CCC43)SC[C@@H]3NC(=O)[C@H](CCCNC(=N)N)NC(=O)[C@H](CC(=O)O)NC(=O)[C@H](Cc4c[nH]c5ccccc45)NC(=O)[C@H](CCCNC(=N)N)NC(=O)[C@H](Cc4ccccc4)NC(=O)[C@H](Cc4cnc[nH]4)NC(=O)CNC(=O)[C@H](CCCC)NC(=O)[C@H](CS6)NC(=O)[C@H](CCCNC(=N)N)NC(=O)[C@H](Cc4c[nH]c5ccccc45)NC(=O)[C@H](CCCNC(=N)N)NC(=O)[C@H](Cc4ccccc4)NC(=O)[C@H](Cc4cnc[nH]4)NC3=O)SC[C@H](NC(=O)[C@H](CCCNC(=N)N)NC(=O)[C@H](CC(=O)O)NC(=O)[C@H](Cc3c[nH]c4ccccc34)NC(=O)[C@H](CCCNC(=N)N)NC(=O)[C@H](Cc3ccccc3)NC(=O)[C@H](Cc3cnc[nH]3)NC(=O)CNC1=O)C(=O)N[C@@H](Cc1cnc[nH]1)C(=O)N[C@@H](Cc1ccccc1)C(=O)N[C@@H](CCCNC(=N)N)C(=O)N[C@@H](Cc1c[nH]c3ccccc13)C(=O)N[C@@H](CCCNC(=N)N)C(=O)N2 (some centres not stated) | 9.18 | 17 | 7.94 | 47 | 7.51 | – | –
CCCC[C@@H]1NC(=O)[C@@H]2CSCc3ccc(cc3)CSC[C@H](NC(=O)[C@H](CCCNC(=N)N)NC(=O)[C@H](CC(=O)O)NC(=O)[C@H](Cc3c[nH]c4ccccc34)NC(=O)[C@H](CCCNC(=N)N)NC(=O)[C@H](Cc3ccccc3)NC(=O)[C@H](Cc3cnc[nH]3)NC(=O)CNC1=O)C(=O)N[C@@H](Cc1cnc[nH]1)C(=O)N[C@@H](Cc1ccccc1)C(=O)N[C@@H](CCCNC(=N)N)C(=O)N[C@@H](Cc1c[nH]c3ccccc13)C(=O)N[C@@H](CCCNC(=N)N)C(=O)N2 (cyclo(CHFRWRC[Nle]GHFRWDR); linker 1-7 via pXylylene) | 9.61 | – | 7.86 | – | – | 0.0891 | 9.48
CCCC[C@@H]1NC(=O)[C@@H]2CSc3nnc(c4c3CCC3C(CC4)C3COC(=O)NCCN)SC[C@H](NC(=O)[C@H](CCCNC(=N)N)NC(=O)[C@H](CC(=O)O)NC(=O)[C@H](Cc3c[nH]c4ccccc34)NC(=O)[C@H](CCCNC(=N)N)NC(=O)[C@H](Cc3ccccc3)NC(=O)[C@H](Cc3cnc[nH]3)NC(=O)CNC1=O)C(=O)N[C@@H](Cc1cnc[nH]1)C(=O)N[C@@H](Cc1ccccc1)C(=O)N[C@@H](CCCNC(=N)N)C(=O)N[C@@H](Cc1c[nH]c3ccccc13)C(=O)N[C@@H](CCCNC(=N)N)C(=O)N2 (some centres not stated) (cyclo(CHFRWRC[Nle]GHFRWDR); linker 1-7 via X8) | > 11.26 | 115 | 9.20 | 166 | 9.04 | – | –
CCCC[C@@H]1NC(=O)[C@@H]2CSc3nnc(c4c3CCC3C(CC4)C3COC(=O)NCCOCCOCCOCCNC(=O)OCC3C4CCc5c6nnc(c5CCC43)SC[C@@H]3NC(=O)[C@H](CCCNC(=N)N)NC(=O)[C@H](CC(=O)O)NC(=O)[C@H](Cc4c[nH]c5ccccc45)NC(=O)[C@H](CCCNC(=N)N)NC(=O)[C@H](Cc4ccccc4)NC(=O)[C@H](Cc4cnc[nH]4)NC(=O)CNC(=O)[C@H](CCCC)NC(=O)[C@H](CS6)NC(=O)[C@H](CCCNC(=N)N)NC(=O)[C@H](Cc4c[nH]c5ccccc45)NC(=O)[C@H](CCCNC(=N)N)NC(=O)[C@H](Cc4ccccc4)NC(=O)[C@H](Cc4cnc[nH]4)NC3=O)SC[C@H](NC(=O)[C@H](CCCNC(=N)N)NC(=O)[C@H](CC(=O)O)NC(=O)[C@H](Cc3c[nH]c4ccccc34)NC(=O)[C@H](CCCNC(=N)N)NC(=O)[C@H](Cc3ccccc3)NC(=O)[C@H](Cc3cnc[nH]3)NC(=O)CNC1=O)C(=O)N[C@@H](Cc1cnc[nH]1)C(=O)N[C@@H](Cc1ccccc1)C(=O)N[C@@H](CCCNC(=N)N)C(=O)N[C@@H](Cc1c[nH]c3ccccc13)C(=O)N[C@@H](CCCNC(=N)N)C(=O)N2 (some centres not stated) | 8.65 | 17 | 7.43 | 41 | 7.04 | – | –
CCCC[C@@H]1NC(=O)[C@@H]2CSc3nnc(c4c3CCC3C(CC4)C3COC(=O)NCCOCCOCCOCCNC(=O)OCC3C4CCc5nnn(CC(=O)N6CCCC[C@H]6C6(O)CN(C(=O)c7ccc(F)c(F)c7Nc7ccc(I)cc7F)C6)c5CCC43)SC[C@H](NC(=O)[C@H](CCCNC(=N)N)NC(=O)[C@H](CC(=O)O)NC(=O)[C@H](Cc3c[nH]c4ccccc34)NC(=O)[C@H](CCCNC(=N)N)NC(=O)[C@H](Cc3ccccc3)NC(=O)[C@H](Cc3cnc[nH]3)NC(=O)CNC1=O)C(=O)N[C@@H](Cc1cnc[nH]1)C(=O)N[C@@H](Cc1ccccc1)C(=O)N[C@@H](CCCNC(=N)N)C(=O)N[C@@H](Cc1c[nH]c3ccccc13)C(=O)N[C@@H](CCCNC(=N)N)C(=O)N2 (some centres not stated) (cyclo(CHFRWRC[Nle]GHFRWDR); linker 1-7 via X9) | 8.67 | 24 | 7.29 | 79 | 6.77 | – | –
CCCC[C@@H]1NC(=O)[C@@H]2CSCc3ccccc3CSC[C@H](NC(=O)[C@H](CCCNC(=N)N)NC(=O)[C@H](CC(=O)O)NC(=O)[C@H](Cc3c[nH]c4ccccc34)NC(=O)[C@H](CCCNC(=N)N)NC(=O)[C@H](Cc3ccccc3)NC(=O)[C@H](Cc3cnc[nH]3)NC(=O)CNC1=O)C(=O)N[C@@H](Cc1cnc[nH]1)C(=O)N[C@@H](Cc1ccccc1)C(=O)N[C@@H](CCCNC(=N)N)C(=O)N[C@@H](Cc1c[nH]c3ccccc13)C(=O)N[C@@H](CCCNC(=N)N)C(=O)N2 (cyclo(CHFRWRC[Nle]GHFRWDR); linker 1-7 via oXylylene) | 8.80 | – | 7.58 | – | – | 0.195 | 9.46
CCCC[C@@H]1NC(=O)[C@@H]2CSc3nnc(c4c3CCC3C(CC4)C3COC(=O)NCCOCCOCCNC(=O)CCOCCOCCOCCOCCOCCC(=O)NCCOCCOCCNC(=O)OCC3C4CCc5c6nnc(c5CCC43)SC[C@@H]3NC(=O)[C@H](CCCNC(=N)N)NC(=O)[C@H](CC(=O)O)NC(=O)[C@H](Cc4c[nH]c5ccccc45)NC(=O)[C@H](CCCNC(=N)N)NC(=O)[C@H](Cc4ccccc4)NC(=O)[C@H](Cc4cnc[nH]4)NC(=O)CNC(=O)[C@H](CCCC)NC(=O)[C@H](CS6)NC(=O)[C@H](CCCNC(=N)N)NC(=O)[C@H](Cc4c[nH]c5ccccc45)NC(=O)[C@H](CCCNC(=N)N)NC(=O)[C@H](Cc4ccccc4)NC(=O)[C@H](Cc4cnc[nH]4)NC3=O)SC[C@H](NC(=O)[C@H](CCCNC(=N)N)NC(=O)[C@H](CC(=O)O)NC(=O)[C@H](Cc3c[nH]c4ccccc34)NC(=O)[C@H](CCCNC(=N)N)NC(=O)[C@H](Cc3ccccc3)NC(=O)[C@H](Cc3cnc[nH]3)NC(=O)CNC1=O)C(=O)N[C@@H](Cc1cnc[nH]1)C(=O)N[C@@H](Cc1ccccc1)C(=O)N[C@@H](CCCNC(=N)N)C(=O)N[C@@H](Cc1c[nH]c3ccccc13)C(=O)N[C@@H](CCCNC(=N)N)C(=O)N2 (some centres not stated) | 9.38 | 25 | 7.99 | 79 | 7.48 | – | –
CCCC[C@@H]1NC(=O)[C@@H]2CSCc3cccc(c3)CSC[C@H](NC(=O)[C@H](CCCNC(=N)N)NC(=O)[C@H](CC(=O)O)NC(=O)[C@H](Cc3c[nH]c4ccccc34)NC(=O)[C@H](CCCNC(=N)N)NC(=O)[C@H](Cc3ccccc3)NC(=O)[C@H](Cc3cnc[nH]3)NC(=O)CNC1=O)C(=O)N[C@@H](Cc1cnc[nH]1)C(=O)N[C@@H](Cc1ccccc1)C(=O)N[C@@H](CCCNC(=N)N)C(=O)N[C@@H](Cc1c[nH]c3ccccc13)C(=O)N[C@@H](CCCNC(=N)N)C(=O)N2 (cyclo(CHFRWRC[Nle]GHFRWDR); linker 1-7 via mXylylene) | 9.39 | – | 7.87 | – | – | 0.0871 | 9.51
